According to patent US4987132A, “Saturated heterocyclic carboxamide derivatives” (Yamanouchi Pharmaceutical Co., Ltd., priority 1987, dated 1991):
Where a name gives a salt, the structure may show the parent alone. Read-outs that look alike come from different tables or passages of the source.

Columns and labels:
Assay type in all cases: cell-based, rabbit (Japan white, male)
[1] = test system: platelet activating factor (PAF)-induced rabbit platelet aggregation in plasma; assay: PAF-induced platelet aggregation in rabbit platelet rich plasma
Experimental: (§1) Method: Nine volumes of blood were drawn from the central ear artery of male rabbit (Japan white, 3 kg) directly into plastic syringe containing 1 volume of 3.8% sodium citrate. The blood was centrifuged at 270×g for 10 minutes at room temperature and the platelet rich plasma (PRP) was removed. The pellet was further centrifuged at 1,100×g for 15 minutes. The supernatant was used as platelet poor plasma (PPP). The platelet concentration was adjusted to 5×10^5 cells/μl with PPP. Platelet aggregation was measured by the method of G. V. R. Born and M. J. Cross [Journal of Physiology, 168, 178-195 (1963)] using a HEMA TRACER (Nikou Bio Science, Japan). Varying concentration of compounds were added to the PRP 2 minutes prior to PAF (10^-8 M). The extent of platelet aggregation was determined by the maximum change of light transmission, assigning the transmission of unstimulated PRP to be 0% and that of PPP to be as 100%. Percent inhibition with compound was calculated by dividing the percent aggregation in the presence of compound by that in the control, and then the IC50 values were calculated.

[2] = test system: platelet aggregation induced by collagen; assay: platelet aggregation induced by collagen; conditions: collagen 10 μg/ml; data not shown
Experimental: as §1, with “Varying concentration of compounds were added to the PRP 2 minutes prior to PAF (10^-8 M).” left out

[3] = test system: platelet aggregation induced by ADP; assay: platelet aggregation induced by ADP; conditions: ADP 3×10^-6 M; data not shown
Experimental: as §1, with “Varying concentration of compounds were added to the PRP 2 minutes prior to PAF (10^-8 M).” left out

[4] = test system: platelet aggregation induced by arachidonic acid; assay: platelet aggregation induced by arachidonic acid; conditions: arachidonic acid 1×10^-4 M; data not shown
Experimental: as §1, with “Varying concentration of compounds were added to the PRP 2 minutes prior to PAF (10^-8 M).” left out

[5] = Oryctolagus cuniculus, Platelet, Table 1, PAF 10^-8 M, compound added 2 minutes prior to PAF, rabbit PRP, read-out: IC50
[6] = Oryctolagus cuniculus, Platelet
[7] = Oryctolagus cuniculus, Platelet, PAF 10^-8 M, compound added 2 minutes prior to PAF, rabbit PRP, read-out: IC50 values

IC50 [1, 5] [µM]	Structure (SMILES)	further results
0.49	O=C(C1CSC(c2cccnc2)N1)N1CCN(c2ccccc2)CC1 (stereo not drawn) [Example 32, trihydrochloride]	–
0.86	O=C(C1CSC(c2cccnc2)N1)N1CCC(Cc2ccccc2)CC1 (stereo not drawn) [Example 36, 4-benzyl-1-[2-(3-pyridyl)thiazolidin-4-ylcarbonyl]piperidine dihydrochloride]	–
0.65	O=C(C1CSC(c2cccnc2)N1)N1CCC(c2ccccc2)CC1 (stereo not drawn) [Example 46, 4-phenyl-1-[2-(3-pyridyl)thiazolidin-4-ylcarbonyl]piperidine dihydrochloride]	–
0.45	O=C(C1CSC(c2cccnc2)N1)N1CCN(Cc2ccccc2)CC1 (stereo not drawn) [Example 48, 1-benzyl-4-[2(3-pyridyl)thiazolidin-4-ylcarbonyl]piperazine trihydrochloride]	–
0.085	Cl.Cl.Cl.O=C(C1CSC(c2cccnc2)N1)N1CCN(CCCCc2ccccc2)CC1 (stereo not drawn) [Example 49, 1-(4-phenylbutyl)-4-[2-(3-pyridyl)thiazolidin-4-ylcarbonyl]piperazine trihydrochloride]	inhibition of platelet aggregation induced by collagen [2]: did not inhibit; inhibition of platelet aggregation induced by ADP [3]: did not inhibit; inhibition of platelet aggregation induced by arachidonic acid [4]: did not inhibit; IC50 [1, 7]: 0.028 to 0.085 µM
0.5	Cc1ccc(CN2CCN(C(=O)C3CSC(c4cccnc4)N3)CC2)cc1 (stereo not drawn) [Example 63]	–
0.39	O=C(C1CSC(c2cccnc2)N1)N1CCN(CC=Cc2ccccc2)CC1 (stereo not drawn) [Example 64]	–
0.12	O=C(C1CSC(c2cccnc2)N1)N1CCN(CCCOc2ccccc2)CC1 (stereo not drawn) [Example 65]	–
0.43	O=C(CN1CCN(C(=O)C2CSC(c3cccnc3)N2)CC1)c1ccccc1 (stereo not drawn) [Example 66]	–
0.9	O=C(C1CSC(c2cccnc2)N1)N1CCC(CCc2ccccc2)CC1 (stereo not drawn) [Example 72]	–
0.9	O=C(C1CSC(c2cccnc2)N1)N1CCCN(Cc2ccccc2)CC1 (stereo not drawn) [Example 76]	–
0.22	O=C(C1CSC(c2cccnc2)N1)N1CCN(CCc2ccccc2)CC1 (stereo not drawn) [Example 84]	–
0.072	O=C(C1CSC(c2cccnc2)N1)N1CCN(CCCCCc2ccccc2)CC1 (stereo not drawn) [Example 85]	inhibition of platelet aggregation induced by collagen [2]: did not inhibit; inhibition of platelet aggregation induced by ADP [3]: did not inhibit; inhibition of platelet aggregation induced by arachidonic acid [4]: did not inhibit; IC50 [1, 7]: 0.028 to 0.085 µM
0.19	O=C(C1CSC(c2cccnc2)N1)N1CCN(CCCc2ccc(O)cc2)CC1 (stereo not drawn) [Example 121]	–
0.18	O=C(C1CSC(c2cccnc2)N1)N1CCN(CCCc2ccc(Cl)cc2)CC1 (stereo not drawn) [Example 123]	–
0.18	O=C(C1CSC(c2cccnc2)N1)N1CCN(CCCc2ccc(F)cc2)CC1 (stereo not drawn) [Example 124]	–
0.18	Nc1ccc(CCCN2CCN(C(=O)C3CSC(c4cccnc4)N3)CC2)cc1 (stereo not drawn) [Example 126]	–
0.46	Cc1ccccc1CCCN1CCN(C(=O)C2CSC(c3cccnc3)N2)CC1 (stereo not drawn) [Example 127]	–

More lines, now with the values behind:

Structure (SMILES)	IC50 [1, 5] [µM]	further results
Cc1ccc(CNC(=O)C2CSC(c3cccnc3)N2)cc1 (stereo not drawn) [Example 20, N-(p-Methylbenzyl)-2-(3-pyridyl)thiazolidine-4-carboxamide dihydrochloride]	0.8	–
CN(Cc1ccccc1)C(=O)C1CSC(c2cccnc2)N1 (stereo not drawn) [Example 22, N-benzyl-N-methyl-2-(3-pyridyl)thiazolidine-4-carboxamide dihydrochloride]	0.79	–
O=C(NCc1ccc(OCCCCc2ccccc2)cc1)C1CSC(c2cccnc2)N1 (stereo not drawn) [Example 23, N-2-(3-pyridyl)thiazolidine-4-carboxamide dihydrochloride]	0.43	–
CCCCCCCOc1ccc(CNC(=O)C2CSC(c3cccnc3)N2)cc1 (stereo not drawn) [Example 24, N-(p-Heptyloxybenzyl)-2-(3-pyridyl)thiazolidine-4-carboxamide dihydrochloride]	0.25	–
O=C(NC1CCCCC1)C1CSC(c2cccnc2)N1 (stereo not drawn) [Example 34, N-cyclohexyl-2-(3-pyridyl)thiazolidine-4-carboxamide dihydrochloride]	–	IC50 [1, 6]: 0.95 µM
O=C(NNc1ccccc1)C1CSC(c2cccnc2)N1 (stereo not drawn) [Example 50, N'-phenyl-2-(3-pyridyl)thiazolidine-4-carbohydrazide]	0.8	–
CC(C)CCOc1ccc(CNC(=O)C2CSC(c3cccnc3)N2)cc1 (stereo not drawn) [Example 54, N-[p-(3-methylbutoxy)benzyl]-2-(3-pyridyl)thiazolidine-4-carboxamide dihydrochloride]	0.24	–
CC(C)COc1ccc(CNC(=O)C2CSC(c3cccnc3)N2)cc1 (stereo not drawn) [Example 55]	0.16	–
CC(C)CCCOc1ccc(CNC(=O)C2CSC(c3cccnc3)N2)cc1 (stereo not drawn) [Example 56]	0.12	–
O=C(NCc1ccc(OCC2CCCC2)cc1)C1CSC(c2cccnc2)N1 (stereo not drawn) [Example 57]	0.2	–
O=C(NCc1ccc(OCCCc2ccccc2)cc1)C1CSC(c2cccnc2)N1 (stereo not drawn) [Example 58]	0.39	–
COc1cc(CNC(=O)C2CSC(c3cccnc3)N2)ccc1OCCCCc1ccccc1 (stereo not drawn) [Example 59]	0.21	–
O=C(NCc1ccc(OCCCOc2ccccc2)cc1)C1CSC(c2cccnc2)N1 (stereo not drawn) [Example 60]	0.76	–
CCCCc1ccc(CNC(=O)C2CSC(c3cccnc3)N2)cc1 (stereo not drawn) [Example 61]	0.77	–
O=C(CCCN1CCN(C(=O)C2CSC(c3cccnc3)N2)CC1)c1ccc(Br)cc1 (stereo not drawn) [Example 67]	0.071	inhibition of platelet aggregation induced by collagen [2]: did not inhibit; inhibition of platelet aggregation induced by ADP [3]: did not inhibit; inhibition of platelet aggregation induced by arachidonic acid [4]: did not inhibit; IC50 [1, 7]: 0.028 to 0.085 µM
CCCCCCCN1CCN(C(=O)C2CSC(c3cccnc3)N2)CC1 (stereo not drawn) [Example 71]	0.064	inhibition of platelet aggregation induced by collagen [2]: did not inhibit; inhibition of platelet aggregation induced by ADP [3]: did not inhibit; inhibition of platelet aggregation induced by arachidonic acid [4]: did not inhibit; IC50 [1, 7]: 0.028 to 0.085 µM
CCCCCCCN1CCCN(C(=O)C2CSC(c3cccnc3)N2)CC1 (stereo not drawn) [Example 80]	0.34	–
CCCCCCCCCCN1CCN(C(=O)C2CSC(c3cccnc3)N2)CC1 (stereo not drawn) [Example 81, 1-decyl-4-[2-(3-pyridyl)thiazolidin-4-ylcarbonyl]piperazine trihydrochloride]	0.028	inhibition of platelet aggregation induced by collagen [2]: did not inhibit; inhibition of platelet aggregation induced by ADP [3]: did not inhibit; inhibition of platelet aggregation induced by arachidonic acid [4]: did not inhibit; IC50 [1, 7]: 0.028 to 0.085 µM
CN(Cc1ccc(OCCCc2ccccc2)cc1)C(=O)C1CSC(c2cccnc2)N1 (stereo not drawn) [Example 89]	0.4	–
CCCCCCCCN1CCN(C(=O)C2CSC(c3cccnc3)N2)CC1 (stereo not drawn) [Example 90, 1-octyl-4-[2-(3-pyridyl)thiazolidin-4-ylcarbonyl]piperazine fumarate]	0.067	inhibition of platelet aggregation induced by collagen [2]: did not inhibit; inhibition of platelet aggregation induced by ADP [3]: did not inhibit; inhibition of platelet aggregation induced by arachidonic acid [4]: did not inhibit; IC50 [1, 7]: 0.028 to 0.085 µM
CCCCCCN1CCN(C(=O)C2CSC(c3cccnc3)N2)CC1 (stereo not drawn) [Example 92]	0.26	–
CC(C)CCCN1CCN(C(=O)C2CSC(c3cccnc3)N2)CC1 (stereo not drawn) [Example 93]	0.63	–
Cc1ncccc1C1NC(C(=O)N2CCN(CCCc3ccccc3)CC2)CS1 (stereo not drawn) [Example 97]	0.12	–
CCCCCCN1CCN(C(=O)C2CSC(c3cccnc3)N2)CC1 (stereo not drawn) [Example 117]	–	IC50 ([1]; Table 1, PAF 10^-8 M, compound added 2 minutes prior to PAF, rabbit PRP, read-out: IC50): 0.26 µM
Cc1ccc(CCCN2CCN(C(=O)C3CSC(c4cccnc4)N3)CC2)cc1 (stereo not drawn) [Example 119]	0.079	inhibition of platelet aggregation induced by collagen [2]: did not inhibit; inhibition of platelet aggregation induced by ADP [3]: did not inhibit; inhibition of platelet aggregation induced by arachidonic acid [4]: did not inhibit; IC50 [1, 7]: 0.028 to 0.085 µM
COc1ccc(CCCN2CCN(C(=O)C3CSC(c4cccnc4)N3)CC2)cc1 (stereo not drawn) [Example 120]	0.17	–
O=C(C1CSC(c2cccnc2)N1)N1CCN(CCCc2ccc([N+](=O)[O-])cc2[N+](=O)[O-])CC1 (stereo not drawn) [Example 125]	–	IC50 [1, 6]: 0.45 µM
N#Cc1ccc(CCCN2CCN(C(=O)C3CSC(c4cccnc4)N3)CC2)cc1 (stereo not drawn) [Example 128]	0.97	–
CC(CCN1CCN(C(=O)C2CSC(c3cccnc3)N2)CC1)c1ccccc1 (stereo not drawn) [Example 142]	–	inhibition of platelet aggregation induced by collagen [2]: did not inhibit; inhibition of platelet aggregation induced by ADP [3]: did not inhibit; inhibition of platelet aggregation induced by arachidonic acid [4]: did not inhibit; IC50 [1, 7]: 0.028 to 0.085 µM
